We go through 21 compounds from patent US11319299B2, “Substituted carboxamides as inhibitors of WDR5 protein-protein binding” (PROPELLON THERAPEUTICS INC., priority 2016, dated 2022).

Broadly, the pKd is −log10 of the Kd, conventionally taken in molar units. What is called pIC50 is the IC50 on a negative log10 scale, so that one unit is a factor of ten.

In one test the target is WDR5 (Homo sapiens (Human), UniProt P61964). Briefly: Surface Plasmon Resonance (SPR) assay, KD and residence time. It is filed as binding. Particulars: read-out: WDR5 binding affinity (KD).
In another test the test system is MV4-11 cells. Description: Cell proliferation assay (ATPlite). Type of test: cell-based. The following applies: MV-411 cells, five days, read-out: In vitro whole cell potency in MV-411 cells, (IC50). How it is done: (iv) Cell Proliferation Assay
MV4-11 cells were seeded into a 96-well plate at 1,000 cells/well in 150 μl medium (Alpha-MEM containing 10% FBS, 100 μg/ml Normocin, and 50 μg/ml Gentamycin, Invitrogen). A HP D300 digital dispenser was used to dose cells with DMSO or test compounds across a 10-point range of concentrations (high dose of 10 μM), and cultures were grown in a humidified 5% CO2 incubator at 37° C. After five days, plates were removed from the incubator and equilibrated to room temperature. An equal volume of ATPlite assay reagent was added to each well, and samples were processed according to manufacturer's instructions (Perkin Elmer). Luminescent signal was measured using an Envision plate reader equipped with a US-Luminescence detector.

Setting [1] is: surface plasmon resonance (SPR).
The mark [2] stands for this setting: surface plasmon resonance (SPR) assay.

pIC50, pKd: −log10 of the molar value. Read-outs that look alike come from different tables or passages of the source. Where only a bound is given, the exact number is not on record here.

On to “4-(difluoromethyl)-N-[4-fluoro-5-[2-[(3R)-3-methylmorpholin-4-yl]pyrimidin-5-yl]-2-[(3S,5R)-3,4,5-trimethylpiperazin-1-yl]phenyl]-6-oxo-1H-pyridine-3-carboxamide [Example 521]”, for which, at WDR5 (setting [1]), the negative-log Kd (pKd) is 9.24. The negative-log IC50 (pIC50) with MV4-11 cells was 7.17.

As to `C[C@@H]1CN(c2ncc(-c3cc(NC(=O)c4ccc(F)cc4C(F)(F)F)c(N4CCN(C)[C@@H](C)C4)cc3F)cn2)C[C@H](C)O1` (racemic) [Example 430, 4-fluoro-N-[4-fluoro-5-[2-[(2R,6S)-2,6-dimethylmorpholin-4-yl]pyrimidin-5-yl]-2-[(3R)-3,4-dimethylpiperazin-1-yl]phenyl]-2-(trifluoromethyl)benzamide], the pKd on WDR5 (setting [1]) was 9.53. Besides, the negative logarithm of the IC50 (pIC50) with MV4-11 cells (Homo sapiens, MV4-11, 120 h) is 7.31. As for `C[C@@H]1CN(c2cc(F)c(-c3cnc(N4CCO[C@@H](C)C4)nc3)cc2NC(=O)c2cn(C)c(=O)cc2C(F)(F)F)C[C@H](C)N1C` (racemic) [Example 451, N-[4-fluoro-5-[2-[(2R)-2-methylmorpholin-4-yl]pyrimidin-5-yl]-2-[(3S,5R)-3,4,5-trimethylpiperazin-1-yl]phenyl]-1-methyl-6-oxo-4-(trifluoromethyl)pyridine-3-carboxamide], the negative logarithm of the Kd (pKd) at WDR5 (setting [1]) is 8.76. For the same compound, the pIC50 with MV4-11 cells (Homo sapiens, MV4-11, 120 h) was 7.04.

With `CC1CN(c2cc(F)c(-c3cnc(C#N)nc3)cc2NC(=O)c2c[nH]c(=O)cc2C(F)(F)F)CCN1C` (stereo in doubt) [Example 197, N-[5-(2-cyanopyrimidin-5-yl)-4-fluoro-2-[(3R)-3,4-dimethylpiperazin-1-yl]phenyl]-6-oxo-4-(trifluoromethyl)-1H-pyridine-3-carboxamide], the pKd at WDR5 (setting [2]) is 9.17. For the same compound, the negative-log IC50 (pIC50) in the test with MV4-11 cells (Homo sapiens, MV4-11, 120 h) was 7.36.

For the compound `CC1CN(c2cc(F)c(-c3cnc(N4C[C@@H](C)O[C@@H](C)C4)nc3)cc2NC(=O)c2c[nH]c(=O)cc2C(F)(F)F)CCN1C` (stereo in doubt) [Example 202, N-[4-fluoro-5-[2-[(2R,6S)-2,6-dimethylmorpholin-4-yl]pyrimidin-5-yl]-2-[(3R)-3,4-dimethylpiperazin-1-yl]phenyl]-6-oxo-4-(trifluoromethyl)-1H-pyridine-3-carboxamide], on WDR5 (setting [2]), the pKd is 9.36. The pIC50 in the test with MV4-11 cells (Homo sapiens, MV4-11, 120 h) was 7.70. For the compound `CC1CN(c2cc(F)c(-c3cnc(N4CCN(C)CC4)nc3)cc2NC(=O)c2cn(C)c(=O)cc2C(F)(F)F)CCN1C` (stereo in doubt) [Example 279, N-[4-fluoro-5-[2-(4-methylpiperazin-1-yl)pyrimidin-5-yl]-2-[(3R)-3,4-dimethylpiperazin-1-yl]phenyl]-1-methyl-6-oxo-4-(trifluoromethyl)pyridine-3-carboxamide], at WDR5 (setting [2]), the negative logarithm of the Kd (pKd) was 8.68. In the test with MV4-11 cells (Homo sapiens, MV4-11, 120 h), the pIC50 is 6.93. On the same counts, the results for `CC1CN(c2cc(F)c(-c3ccc(N4C[C@@H](C)O[C@@H](C)C4)nc3)cc2NC(=O)c2c[nH]c(=O)cc2C(F)(F)F)CCN1C` (stereo in doubt) [Example 341, N-[4-fluoro-5-[6-[(2R,6S)-2,6-dimethylmorpholin-4-yl]pyridin-3-yl]-2-[(3R)-3,4-dimethylpiperazin-1-yl]phenyl]-6-oxo-4-(trifluoromethyl)-1H-pyridine-3-carboxamide] are 8.71 and 7.28. On the same counts, the results for `CC(C)C1CN(c2ncc(-c3cc(NC(=O)c4c[nH]c(=O)cc4C(F)(F)F)c(N4C[C@@H](C)N(C)[C@@H](C)C4)cc3F)cn2)CCO1` (stereo in doubt) [Example 348, N-[4-fluoro-5-[2-[(2R)-2-propan-2-ylmorpholin-4-yl]pyrimidin-5-yl]-2-[(3S,5R)-3,4,5-trimethylpiperazin-1-yl]phenyl]-6-oxo-4-(trifluoromethyl)-1H-pyridine-3-carboxamide] are 8.64 and 7.38. `CC1CN(c2cc(F)c(-c3cnc(N4C[C@@H](C)O[C@@H](C)C4)nc3)cc2NC(=O)c2cn(C)c(=O)cc2C(F)F)CCN1C` (stereo in doubt) [Example 383, 4-(difluoromethyl)-N-[4-fluoro-5-[2-[(2R,6S)-2,6-dimethylmorpholin-4-yl]pyrimidin-5-yl]-2-[(3R)-3,4-dimethylpiperazin-1-yl]phenyl]-1-methyl-6-oxopyridine-3-carboxamide]: on WDR5 (setting [2]), the pKd was 8.92. The pIC50 in the test with MV4-11 cells (Homo sapiens, MV4-11, 120 h) was 6.83.

For `C[C@@H]1CN(c2ncc(-c3cc(NC(=O)c4c[nH]c(=O)cc4C(F)F)c(N4CCN(C)[C@H](C)C4)cc3F)cn2)CCO1` (stereo in doubt) [Example 398, 4-(difluoromethyl)-N-[4-fluoro-2-[(3R)-3,4-dimethylpiperazin-1-yl]-5-[2-[(2R)-2-methylmorpholin-4-yl]pyrimidin-5-yl]phenyl]-6-oxo-1H-pyridine-3-carboxamide], the negative-log Kd (pKd) on WDR5 (setting [1]) is 9.05. Besides, the negative logarithm of the IC50 (pIC50) with MV4-11 cells (Homo sapiens, MV4-11, 120 h) was 7.36.

`CC1CN(c2cc(F)c(-c3cnc(N4CCOCC4)nc3)cc2NC(=O)c2c[nH]c(=O)cc2C(F)F)CCN1C` (stereo in doubt) [Example 410, 4-(difluoromethyl)-N-[4-fluoro-5-(2-morpholin-4-ylpyrimidin-5-yl)-2-[(3R)-3,4-dimethylpiperazin-1-yl]phenyl]-6-oxo-1H-pyridine-3-carboxamide]: on WDR5 (setting [1]), the negative-log Kd (pKd) is 9.08. The pIC50 in the test with MV4-11 cells (Homo sapiens, MV4-11, 120 h) was 7.20.

With `CCN(C)C1CCN(c2cc(F)c(-c3cnc(N4C[C@@H](C)O[C@@H](C)C4)nc3)cc2NC(=O)c2c[nH]c(=O)cc2C(F)(F)F)C1` (stereo in doubt) [Example 418, N-[4-fluoro-5-[2-[(2R,6S)-2,6-dimethylmorpholin-4-yl]pyrimidin-5-yl]-2-[(3S)-3-[ethyl(methyl)amino]pyrrolidin-1-yl]phenyl]-6-oxo-4-(trifluoromethyl)-1H-pyridine-3-carboxamide], the negative-log Kd (pKd) on WDR5 (setting [1]) is 8.98. In addition, the pIC50 with MV4-11 cells (Homo sapiens, MV4-11, 120 h) is 7.15. Turning to `C[C@H]1CN(c2cc(F)c(-c3cccc(CN4CCOCC4)c3)cc2NC(=O)c2c[nH]c(=O)cc2C(F)(F)F)CCN1C` [Example 51, (S)—N-(4-(3,4-dimethylpiperazin-1-yl)-6-fluoro-3′-(morpholinomethyl)-[1,1′-biphenyl]-3-yl)-6-oxo-4-(trifluoromethyl)-1,6-dihydropyridine-3-carboxamide], the pIC50 with MV4-11 cells (Homo sapiens, MV4-11, 120 h) is 6.41.

For `C[C@@H]1CN(c2cc(F)c(-c3cccc(CN4CCOCC4)c3)cc2NC(=O)c2c[nH]c(=O)cc2C(F)(F)F)C[C@H](C)N1C` [Example 52, N-(6-fluoro-3′-(morpholinomethyl)-4-((3R,5S)-3,4,5-trimethylpiperazin-1-yl)-[1,1′-biphenyl]-3-yl)-6-oxo-4-(trifluoromethyl)-1,6-dihydropyridine-3-carboxamide], the pIC50 in the test on MV4-11 cells (Homo sapiens, MV4-11, 120 h) was less than 5.00. As for `CN(C)C1CCN(c2cc(F)c(-c3cccc(CN4CCOCC4)c3)cc2NC(=O)c2c[nH]c(=O)cc2C(F)(F)F)C1` (stereo not drawn) [Example 53, N-(4-(3-(dimethylamino)pyrrolidin-1-yl)-6-fluoro-3′-(morpholinomethyl)-[1,1′-biphenyl]-3-yl)-6-oxo-4-(trifluoromethyl)-1,6-dihydropyridine-3-carboxamide], the negative-log IC50 (pIC50) in the test with MV4-11 cells (Homo sapiens, MV4-11, 120 h) was less than 5.00. Still for that read-out and setting: the value for `COc1cc(N2C[C@@H](C)N(C)[C@@H](C)C2)c(NC(=O)c2c[nH]c(=O)cc2C(F)(F)F)cc1-c1cnc(N2CCOCC2)nc1` [Example 55, N-[4-methoxy-5-(2-morpholin-4-ylpyrimidin-5-yl)-2-[(3R,5S)-3,4,5-trimethylpiperazin-1-yl]phenyl]-6-oxo-4-(trifluoromethyl)-1H-pyridine-3-carboxamide] was 6.41. For `CN1CCN(c2ccc(-c3cnc(N4CCOCC4)nc3)cc2NC(=O)c2c[nH]c(=O)cc2C(F)(F)F)CC1` [Example 56, N-(2-(4-methylpiperazin-1-yl)-5-(2-morpholinopyrimidin-5-yl)phenyl)-6-oxo-4-(trifluoromethyl)-1,6-dihydropyridine-3-carboxamide], the negative-log IC50 (pIC50) in the test on MV4-11 cells (Homo sapiens, MV4-11, 120 h) was 6.36. Same read-out and setting: with `C[C@@H]1CN(c2ccc(-c3cnc(N4CCOCC4)nc3)cc2NC(=O)c2c[nH]c(=O)cc2C(F)(F)F)C[C@H](C)N1C` [Example 58, N-(5-(2-morpholinopyrimidin-5-yl)-2-((3R,5S)-3,4,5-trimethylpiperazin-1-yl)phenyl)-6-oxo-4-(trifluoromethyl)-1,6-dihydropyridine-3-carboxamide] the figure was 5.83; with `C[C@@H]1CN(c2ncc(-c3cc(NC(=O)c4c[nH]c(=O)cc4C(F)F)c(N4CCN(C)[C@@H](C)C4)cc3F)cn2)C[C@H](C)O1` [Example 395, 4-(difluoromethyl)-N-[4-fluoro-5-[2-[(2R,6S)-2,6-dimethylmorpholin-4-yl]pyrimidin-5-yl]-2-[(3S)-3,4-dimethylpiperazin-1-yl]phenyl]-6-oxo-1H-pyridine-3-carboxamide], 7.51. As for `C[C@@H]1CN(c2cc(F)c(-c3cccc(N4CCOCC4)n3)cc2NC(=O)c2c[nH]c(=O)cc2C(F)(F)F)C[C@H](C)N1C` [Example 473, N-[4-fluoro-5-(6-morpholin-4-ylpyridin-2-yl)-2-[(3R,5S)-3,4,5-trimethylpiperazin-1-yl]phenyl]-6-oxo-4-(trifluoromethyl)-1H-pyridine-3-carboxamide], in the test with MV4-11 cells (Homo sapiens, MV4-11, 120 h), the pIC50 is 7.49. Turning to `C[C@@H]1CN(c2cc(F)c(-c3ccnc(N(C)C)n3)cc2NC(=O)c2c[nH]c(=O)cc2C(F)(F)F)C[C@H](C)N1C` [Example 540, N-[5-[2-(dimethylamino)pyrimidin-4-yl]-4-fluoro-2-[(3R,5S)-3,4,5-trimethylpiperazin-1-yl]phenyl]-6-oxo-4-(trifluoromethyl)-1H-pyridine-3-carboxamide], in the test on MV4-11 cells (Homo sapiens, MV4-11, 120 h), the pIC50 was 7.57.
